These results are taken from ChEMBL document CHEMBL5500373, “Lead optimization based design, synthesis, and pharmacological evaluation of quinazoline derivatives as multi-targeting agents for Alzheimer's disease treatment” (Eur J Med Chem, 2024).

One data set concerns the target Acetylcholinesterase (Homo sapiens, UniProt P22303). Put plainly: Inhibition of human erythrocyte AChE using acetylthiocholine iodide as substrate preincubated for 30 mins followed by substrate addition and measured after 30 mins by DTNB based Ellman's method. A general note: Ellman's reagent forms a yellow product with free thiols.
For data set [1], the target named is Amyloid-beta precursor protein (Homo sapiens) (UniProt P05067). Put plainly: Inhibition of human AChE induced amyloid beta (1 to 42 residues) (unknown origin) aggregation assessed as reduction in NFI measured after 48 hrs by thioflavin T based fluorescence analysis. Conditions: dose 5-20 µM.
Data set [2] shares this target. Put plainly: Inhibition of amyloid beta (1 to 42 residues) (unknown origin) aggregation assessed as reduction in massive oligomers measured after 3 days by AFM analysis. Conditions: time 3.0 day.
Data set [3] in a line: Acute toxicity in female Wistar rat assessed as effect on renal functional parameters at 100 to 500 mg/kg, po measured after 14 days. It is filed as organism-based. The note with it: in vivo, 336 h, dose 100-500 mg/kg, time 14 day.
A short description of data set [4]: Acute toxicity in female Wistar rat assessed as effect on hepatic functional parameters at 100 to 500 mg/kg, po measured after 14 days. The note with it: in vivo, 336 h, dose 100-500 mg/kg, time 14 day. The data set is classed as organism-based.
Data set [5] is described as follows: Acute toxicity in female Wistar rat assessed as histopathological changes in heart at 100 to 500 mg/kg, po measured after 14 days. The data set is classed as organism-based. Conditions: in vivo, 336 h, dose 100-500 mg/kg, time 14 day.
A short description of data set [6]: Acute toxicity in female Wistar rat assessed as histopathological changes in brain at 100 to 500 mg/kg, po measured after 14 days. It is filed as organism-based. Conditions: in vivo, 336 h, dose 100-500 mg/kg, time 14 day.
The subject of the next data set is Rattus norvegicus. Put plainly: Reversal of amyloid beta (1 to 42 residues) induced cognitive impairment in female Wistar rat assessed as reduction in BACE-1 level in brain hippocampus at 20 mg/kg, po pretreated with amyloid beta for 7 days followed by compound administration and measured after 5 days by immunohistochemistry analysis. It is filed as functional, organism-based. Conditions: time 5.0 day.

Data set [7] can be described thus: Toxicity in Drosophila melanogaster Oregon R-positive assessed as reduction in eclosed flies at embryonic stage at 200 uM measured until 15 days relative to control. Also on record: scale not given: the % may be the effect or the level left. The note with it: 360 h, time 15 day.
For data set [8], the system named is Drosophila melanogaster. The experiment in a line: Reversal of ey-GAL4 driven UAS-amyloid beta induced cellular toxicity in Drosophila melanogaster Oregon R-positive model assessed as increase in cell viability in gut at 10 uM by MTT assay relative to control. It is filed as functional.
The test system of data set [9] is Drosophila melanogaster. The experiment in a line: Reversal of ey-GAL4 driven UAS-amyloid beta induced cellular toxicity in Drosophila melanogaster Oregon R-positive model assessed as reduction in severe ommatidial death eye phenotype at 10 uM by trinocular stereo-zoom microscope relative to control. It is filed as functional. On the set-up: scale not given: the % may be the effect or the level left.

Data set [10] has as its system Drosophila melanogaster. The experiment in a line: Reversal of ey-GAL4 driven UAS-amyloid beta induced cellular toxicity in Drosophila melanogaster Oregon R-positive model assessed as reduction in severe ommatidial death eye phenotype at 15 uM by trinocular stereo-zoom microscope relative to control. It is filed as functional. On the set-up: scale not given: the % may be the effect or the level left.

Data set [11] concerns Drosophila melanogaster. Put plainly: Reversal of ey-GAL4 driven UAS-amyloid beta induced cellular toxicity in Drosophila melanogaster Oregon R-positive model assessed as reduction in mild ommatidial death eye phenotype at 15 uM by trinocular stereo-zoom microscope relative to control. It is filed as functional. Also on record: scale not given: the % may be the effect or the level left.

Data set [12] is described as follows: Drug concentration in male Wistar rat brain homogenate at 10 mg/kg, po measured after 4 days. It is filed as ADME, organism-based. Conditions: time 4 day, read-out: Ct.
The nature of data set [13]: Cmax in male Wistar rat at 20 mg/kg, po measured upto 32 hrs by high-performance liquid chromatography. It is filed as ADME, organism-based. Conditions: in vivo.
The nature of data set [14]: Tmax in male Wistar rat at 20 mg/kg, po measured upto 32 hrs by high-performance liquid chromatography. It is filed as ADME, organism-based. The note with it: in vivo.
Data set [15] is described as follows: AUC (0 to t) in male Wistar rat at 20 mg/kg, po measured upto 32 hrs by high-performance liquid chromatography. The note with it: in vivo. The data set is classed as ADME, organism-based.
Data set [16] can be described thus: MRT in male Wistar rat at 20 mg/kg, po measured upto 32 hrs by high-performance liquid chromatography. The data set is classed as ADME, organism-based. Conditions: in vivo.

Activity calls are given as the source filed them. No cut-off for these calls is given here.

Sequence of Amyloid-beta precursor protein (Homo sapiens) (P05067 whole entry, the tested form may be a part): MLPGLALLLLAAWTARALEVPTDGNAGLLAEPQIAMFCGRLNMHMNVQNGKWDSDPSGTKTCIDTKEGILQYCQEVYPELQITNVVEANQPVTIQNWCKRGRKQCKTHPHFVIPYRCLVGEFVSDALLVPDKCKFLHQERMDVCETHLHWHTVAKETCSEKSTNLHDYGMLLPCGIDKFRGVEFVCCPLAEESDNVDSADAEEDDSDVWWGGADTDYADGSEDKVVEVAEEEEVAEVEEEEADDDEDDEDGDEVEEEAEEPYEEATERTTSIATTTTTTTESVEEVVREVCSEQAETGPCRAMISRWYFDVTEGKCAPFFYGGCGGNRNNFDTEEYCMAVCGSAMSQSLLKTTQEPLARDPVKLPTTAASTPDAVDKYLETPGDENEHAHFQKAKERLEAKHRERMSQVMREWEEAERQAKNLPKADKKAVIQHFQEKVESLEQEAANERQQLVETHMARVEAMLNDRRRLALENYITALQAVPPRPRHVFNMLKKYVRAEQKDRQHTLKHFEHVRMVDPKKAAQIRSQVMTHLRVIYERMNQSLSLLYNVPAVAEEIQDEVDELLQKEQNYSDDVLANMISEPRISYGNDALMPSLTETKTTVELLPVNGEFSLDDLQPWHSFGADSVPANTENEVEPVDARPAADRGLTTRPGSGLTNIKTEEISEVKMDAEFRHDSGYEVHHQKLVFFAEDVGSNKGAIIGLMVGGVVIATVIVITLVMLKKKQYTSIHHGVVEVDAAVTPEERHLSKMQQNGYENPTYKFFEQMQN
Sequence of Acetylcholinesterase (P22303 whole entry, the tested form may be a part): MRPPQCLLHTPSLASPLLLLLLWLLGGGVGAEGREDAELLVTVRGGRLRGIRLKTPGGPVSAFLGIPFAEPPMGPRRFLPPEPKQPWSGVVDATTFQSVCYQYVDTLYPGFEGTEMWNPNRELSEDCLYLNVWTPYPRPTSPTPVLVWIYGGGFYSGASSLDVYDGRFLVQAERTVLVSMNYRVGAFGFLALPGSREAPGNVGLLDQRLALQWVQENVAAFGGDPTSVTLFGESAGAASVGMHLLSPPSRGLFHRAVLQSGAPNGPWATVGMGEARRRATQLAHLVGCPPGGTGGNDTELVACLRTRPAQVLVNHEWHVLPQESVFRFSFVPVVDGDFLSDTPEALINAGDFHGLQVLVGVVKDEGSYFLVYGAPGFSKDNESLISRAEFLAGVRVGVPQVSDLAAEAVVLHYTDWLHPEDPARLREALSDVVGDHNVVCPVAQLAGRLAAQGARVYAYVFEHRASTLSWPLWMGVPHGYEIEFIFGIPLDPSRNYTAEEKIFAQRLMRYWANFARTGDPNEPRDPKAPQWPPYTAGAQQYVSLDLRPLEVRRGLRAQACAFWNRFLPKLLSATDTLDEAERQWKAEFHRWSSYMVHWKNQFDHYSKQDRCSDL

Regarding `COc1cc2ncnc(N3CCN(Cc4ccccc4)CC3)c2cc1OC`, the IC50 – broadly, the midpoint of a concentration-inhibition curve – against Acetylcholinesterase was 0.283 µM. Moreover, in data set [1], the inhibition entry is “Dose-Dependent Effect”. The inhibition result in [2] is “Active”. Besides, the Activity result was “Non-Toxic” in data set [3]; “Non-Toxic” in [4]; “Non-Toxic” in data set [5]; “Non-Toxic” in data set [6]; 100% in [7]; 62% in the data set with Drosophila melanogaster [8]. Also, the Activity in the data set on Drosophila melanogaster [9] is 23.3%; in the data set with Drosophila melanogaster [10] it was 20%; with Drosophila melanogaster [11] it was 30%. Also, the outcome in the data set on Rattus norvegicus was Active. The concentration at 96 h in data set [12] was determined as 633 ng/mL. Moreover, in data set [13], the Cmax (in general, the peak of the concentration-time curve) is 1340 ng/mL. For the same compound, the Tmax (in general, the time from dosing to the highest level) in data set [14] is 3 h. Also, the AUC(0-t) (usually exposure summed from dosing to a finite time, without extrapolation to infinity) at 32 h in data set [15] is 6990 ng·h/mL. For the same compound, in [16], the MRT (commonly a mean duration of stay, worked out from the concentration-time curve) was determined as 6.07 h.
